Experimental data reported in article PMC3444172 (The Journal of organic chemistry, 2012).
Read-outs that look alike come from different tables or passages of the source.

What was measured:
[1] = target: M. tuberculosis lumazine synthase (recombinant homopentameric) (Mycobacterium tuberculosis, UniProt P9WHE9); assay type: biochemical; conditions: for inhibitory activity in words: lumazine synthase inhibition, qualitative statement
[2] = target: M. tuberculosis riboflavin synthase (recombinant) (Mycobacterium tuberculosis, UniProt P9WK35); assay: Kinetic assay of riboflavin synthase inhibitors, M. tuberculosis enzyme; assay type: biochemical
Chain of M. tuberculosis riboflavin synthase (recombinant) (P9WK35 whole entry): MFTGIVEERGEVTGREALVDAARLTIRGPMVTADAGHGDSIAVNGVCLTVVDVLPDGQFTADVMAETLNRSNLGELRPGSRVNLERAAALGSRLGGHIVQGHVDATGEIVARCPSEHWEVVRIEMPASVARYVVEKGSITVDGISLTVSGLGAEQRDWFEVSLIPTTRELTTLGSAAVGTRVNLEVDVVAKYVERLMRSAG

[3] = substrate 2 constant, substrate 1 varied, Tris·HCl pH 7.0
[4] = substrate 3 varied, Tris·HCl pH 7.0

Chain of M. tuberculosis lumazine synthase (recombinant homopentameric) (P9WHE9 whole entry): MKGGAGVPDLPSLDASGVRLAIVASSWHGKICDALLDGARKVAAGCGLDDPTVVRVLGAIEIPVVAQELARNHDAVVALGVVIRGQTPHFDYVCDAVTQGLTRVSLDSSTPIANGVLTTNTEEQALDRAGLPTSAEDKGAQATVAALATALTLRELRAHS

Compound | Mechanism of inhibition [1] | inhibitory activity in words [1] | Kcat (rate constant ES → E + P) ([1]; pH 7) [m^−1] | Kis (ES + I ⇌ ESI) [1, 3] [µM] | Ks (substrate dissociation constant, E + S ⇌ ES) [1, 3] [µM] | Mechanism of inhibition [2] | Kcat (rate constant ES → E + P) [2, 4] [m^−1] | Kis (ES + I ⇌ ESI) [2, 4] [µM] | Ks (substrate dissociation constant, E + S ⇌ ES) [2, 4] [µM] | Ki (E + I ⇌ EI) [1, 3] [µM] | Kcat (rate constant ES → E + P) [1, 3] [m^−1] | Ki (E + I ⇌ EI) [2, 4]
CC(C)C(=O)Nc1c(OC[C@H](O)[C@H](O)[C@H](O)CO)[nH]c(=O)[nH]c1=O [Compound 40] | Uncompetitive | totally inactive | 0.59 ± 0.01 | 766 ± 97 | 16 ± 1 | Uncompetitive | 0.84 ± 0.02 | 698 ± 108 | 9.3 ± 0.6 | – | – | –
CCC(=O)Nc1c(OC[C@H](O)[C@H](O)[C@H](O)CO)[nH]c(=O)[nH]c1=O [Compound 43] | Uncompetitive | totally inactive | 0.39 ± 0.00 | – | 18 ± 2 | Uncompetitive | 0.21 ± 0.00 | >1000 | 4.4 ± 0.2 | – | – | –
C=C(C)C(=O)Nc1c(OC[C@H](O)[C@H](O)[C@H](O)CO)[nH]c(=O)[nH]c1=O [Compound 46] | Uncompetitive | – | 0.57 ± 0.01 | >1000 | 12 ± 1 | Uncompetitive | 0.58 ± 0.01 | >1000 | 9.2 ± 0.6 | > 1000 | – | –
CCC(=O)Nc1c(SC[C@H](O)[C@H](O)[C@H](O)CO)[nH]c(=O)[nH]c1=O [Compound 49] | Competitive | – | 0.65 ± 0.01 | 128 | 11 ± 1 | Uncompetitive | 0.76 ± 0.01 | > 1000 | 10 ± 1 | – | – | –
C=C(C)C(=O)Nc1c(SC[C@H](O)[C@H](O)[C@H](O)CO)[nH]c(=O)[nH]c1=O [Compound 51] | Competitive | – | 0.92 ± 0.03 | – | 17 ± 1 | Uncompetitive | 0.84 ± 0.01 | > 1000 | 10 ± 0 | – | – | –
C=C(C)C(=O)Nc1c(NC[C@H](O)[C@H](O)[C@H](O)CO)[nH]c(=O)[nH]c1=O [Compound 56, N-[2,4-Dioxo-6-((2S,3S,4R)-2,3,4,5-tetrahydroxypentylamino]-1,2,3,4-tetrahydropyrimidin-5-yl)methacrylamide] | Uncompetitive | inactive | – | > 1000 | 19 ± 2 | Partial | 0.57 ± 0.02 | 35 ± 14 | 7.0 ± 0.6 | > 1000 | 0.52 ± 0.02 | –
CC(Cl)C(=O)Nc1c(NC[C@H](O)[C@H](O)[C@H](O)CO)[nH]c(=O)[nH]c1=O (stereo partly drawn) [Compound 60, 2-Chloro-N-(2,4-dioxo-6-((2S,3S,4R)-2,3,4,5-tetrahydroxypentylamino)1,2,3,4-tetrahydropyrimidin-5-yl)propanamide] | Competitive | – | – | – | 17 ± 1 | Competitive | 0.72 ± 0.01 | – | 11 ± 1 | – | 0.85 ± 0.03 | –
O=C(CCl)Nc1c(NC[C@H](O)[C@H](O)[C@H](O)CO)[nH]c(=O)[nH]c1=O [Compound 63, 2-Chloro-N-(2,4-dioxo-6-((2S,3S,4R)-2,3,4,5-tetrahydroxypentylamino)-1,2,3,4-tetrahydropyrimidin-5-yl)acetamide] | Partial | – | – | 53 ± 12 | 24 ± 2 | Uncompetitive | 0.66 ± 0.01 | > 1000 | 8.6 ± 0.4 | – | 0.62 ± 0.02 | –
O=C(CC(F)(F)F)Nc1c(NC[C@H](O)[C@H](O)[C@H](O)CO)[nH]c(=O)[nH]c1=O [Compound 66, N-(2,4-Dioxo-6-((2S,3S,4R)-2,3,4,5-tetrahydroxypentylamino)-1,2,3,4-tetrahydropyrimidin-5-yl)-3,3,3-trifluoropropanamide] | Partial | – | – | 309 ± 125 | 20 ± 1 | Uncompetitive | 0.18 ± 0.1 | > 1000 | 6.6 ± 0.3 | – | 0.76 ± 0.02 | –
CC1(O)C(=O)Nc2c([nH]c(=O)[nH]c2=O)N1C[C@H](O)[C@H](O)[C@H](O)CO (stereo partly drawn) [Compound 69, 7-Hydroxy-7-methyl-8-[(2S,3S,4R)-2,3,4,5-tetrahydroxypentyl)-7,8-dihydropteridin-2,4,6(1H, 3H, 5H)-trione] | Competitive | – | – | – | 19 ± 2 | Competitive | 0.67 ± 0.02 | – | 8.9 ± 0.7 | – | 0.59 ± 0.02 | submicromolar
C=C(C)C(=O)Nc1c(Cl)[nH]c(=O)[nH]c1=O [Compound 78, N-(6-Chloro-2,4-dioxo-1,2,3,4-tetrahydropyrimidin-5-yl)methacrylamide] | Uncompetitive | – | – | >1000 | 18 ± 2 | Uncompetitive | 0.58 ± 0.4 | 694 ± 88 | 8.6 ± 0.4 | – | 0.53 ± 0.03 | –
